Source: patent US10167262B2, “Herbicidal substituted 3-arylpyrazoles” (FMC CORPORATION, priority 2014, dated 2019)

Key:
Experiment in all cases: Test E pre-/postemergence greenhouse test, plant response rating 0-100
Type in all cases: in vivo
[1] = test system: hairy beggarticks (Bidens pilosa); conditions: Bidens pilosa, post-emergence, Postemergence, scale 0 to 100; for pest or weed control at 125 g/ha: 125 g ai/ha; for pest or weed control at 500 g/ha: 500 g ai/ha
In short: (§1)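 Seeds sown in silt loam soil received preemergence treatment with compound in a non-phytotoxic solvent mixture containing surfactant. Postemergence, plants at 2–18 cm (1- to 4-leaf stage) in peat/vermiculite medium were sprayed with the same formulation. Visual injury versus untreated controls was rated 0–100 after 14 to 21 days in the greenhouse.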

[2] = test system: sandbur (southern sandbur, Cenchrus echinatus); conditions: Cenchrus echinatus, post-emergence, Postemergence, scale 0 to 100; for pest or weed control at 125 g/ha: 125 g ai/ha; for pest or weed control at 500 g/ha: 500 g ai/ha
In short: as §1

[3] = test system: corn (Zea mays); conditions: Zea mays, post-emergence, Postemergence, scale 0 to 100; for Corn plant response rating (crop injury, 0 = no effect, 100 = complete kill) at 125 g/ha: 125 g ai/ha; for Corn plant response rating (crop injury, 0 = no effect, 100 = complete kill) at 500 g/ha: 500 g ai/ha
In short: as §1

[4] = test system: arrowleaf sida (Sida rhombifolia); conditions: Sida rhombifolia, post-emergence, Postemergence; for pest or weed control at 125 g/ha: 125 g ai/ha; for pest or weed control at 500 g/ha: 500 g ai/ha, scale 0 to 100 (0 no effect, 100 complete control)
In short: as §1

[5] = test system: Brazilian crabgrass (Digitaria horizontalis); conditions: Digitaria horizontalis, post-emergence, Postemergence, scale 0 to 100, read-out: Plant response rating, Crabgrass, Brazil; for pest or weed control at 125 g/ha: 125 g ai/ha; for pest or weed control at 500 g/ha: 500 g ai/ha
In short: as §1

[6] = test system: waterhemp (common waterhemp, Amaranthus rudis); conditions: Amaranthus tuberculatus, post-emergence, Postemergence, scale 0 to 100; for pest or weed control at 125 g/ha: 125 g ai/ha; for pest or weed control at 500 g/ha: 500 g ai/ha
In short: as §1

[7] = test system: Italian ryegrass (Lolium multiflorum); conditions: Lolium multiflorum, post-emergence, Postemergence, scale 0 to 100; for pest or weed control at 125 g/ha: 125 g ai/ha; for pest or weed control at 500 g/ha: 500 g ai/ha
In short: as §1

[8] = test system: wild poinsettia (Euphorbia heterophylla); conditions: Euphorbia heterophylla, post-emergence, Postemergence, scale 0 to 100, read-out: Plant response rating, Poinsettia, Wild; for pest or weed control at 125 g/ha: 125 g ai/ha; for pest or weed control at 500 g/ha: 500 g ai/ha
In short: as §1

[9] = test system: barnyardgrass (Echinochloa crus-galli); conditions: Echinochloa crus-galli, post-emergence, Postemergence, scale 0 to 100; for pest or weed control at 125 g/ha: 125 g ai/ha; for pest or weed control at 500 g/ha: 500 g ai/ha
In short: as §1

[10] = test system: palmer pigweed (Amaranthus palmeri); conditions: Amaranthus palmeri, post-emergence, Postemergence, scale 0 to 100; for pest or weed control at 125 g/ha: 125 g ai/ha; for pest or weed control at 500 g/ha: 500 g ai/ha
In short: as §1

[11] = test system: soybean (Glycine max); conditions: Glycine max, post-emergence, Postemergence, scale 0 to 100; for plant injury at 125 g/ha: 125 g ai/ha; for plant injury at 500 g/ha: 500 g ai/ha
In short: as §1

[12] = test system: dayflower (Virginia (VA) dayflower, Commelina virginica); conditions: Commelina virginica, post-emergence, Postemergence, scale 0 to 100; for pest or weed control at 125 g/ha: 125 g ai/ha; for pest or weed control at 500 g/ha: 500 g ai/ha
In short: as §1

## COC(OC)(c1ccccc1)c1c[nH]nc1-c1cc(Cl)cc(Cl)c1 [Compound 13, 3-(3,5-dichlorophenyl)-4-(dimethoxyphenylmethyl)-1H-pyrazole]
[1]
  pest or weed control at 125 g/ha: 60%
  pest or weed control at 500 g/ha: 90%
[2]
  pest or weed control at 125 g/ha: 0%
  pest or weed control at 500 g/ha: 0%
[3]
  Corn plant response rating (crop injury, 0 = no effect, 100 = complete kill) at 125 g/ha: 0%
  Corn plant response rating (crop injury, 0 = no effect, 100 = complete kill) at 500 g/ha: 0%
[4]; scale 0 to 100
  pest or weed control at 125 g/ha: 80%
[4]
  pest or weed control at 500 g/ha: 90%
[5]
  pest or weed control at 125 g/ha: 0%
  pest or weed control at 500 g/ha: 0%
[6]
  pest or weed control at 125 g/ha: 90%
  pest or weed control at 500 g/ha: 95%
[7]
  pest or weed control at 125 g/ha: 0%
  pest or weed control at 500 g/ha: 0%
[8]
  pest or weed control at 125 g/ha: 0%
  pest or weed control at 500 g/ha: 0%
[9]
  pest or weed control at 125 g/ha: 15%
  pest or weed control at 500 g/ha: 40%
[10]
  pest or weed control at 125 g/ha: 85%
  pest or weed control at 500 g/ha: 95%
[11]
  plant injury at 125 g/ha: 0%
  plant injury at 500 g/ha: 0%
[12]
  pest or weed control at 125 g/ha: 10%
  pest or weed control at 500 g/ha: 10%

## CCOC(OCC)(c1ccccc1)c1c[nH]nc1-c1cc(Cl)cc(Cl)c1 [Compound 14, 3-(3,5-dichlorophenyl)-4-(diethoxyphenylmethyl)-1H-pyrazole]
[1]; 31 g ai/ha
  pest or weed control at 31 g/ha: 80%
[1]; 62 g ai/ha
  pest or weed control at 62 g/ha: 90%
[1]
  pest or weed control at 125 g/ha: 95%
  pest or weed control at 500 g/ha: 98%
[1]; 250 g ai/ha
  pest or weed control at 250 g/ha: 95%
[2]; 31 g ai/ha
  pest or weed control at 31 g/ha: 0%
[2]; 62 g ai/ha
  pest or weed control at 62 g/ha: 0%
[2]
  pest or weed control at 125 g/ha: 0%
  pest or weed control at 500 g/ha: 0%
[2]; 250 g ai/ha
  pest or weed control at 250 g/ha: 0%
[3]; 31 g ai/ha
  Corn plant response rating (crop injury, 0 = no effect, 100 = complete kill) at 31 g/ha: 0%
[3]; 62 g ai/ha
  Corn plant response rating (crop injury, 0 = no effect, 100 = complete kill) at 62 g/ha: 0%
[3]
  Corn plant response rating (crop injury, 0 = no effect, 100 = complete kill) at 125 g/ha: 0%
  Corn plant response rating (crop injury, 0 = no effect, 100 = complete kill) at 500 g/ha: 0%
[3]; 250 g ai/ha
  Corn plant response rating (crop injury, 0 = no effect, 100 = complete kill) at 250 g/ha: 0%
[4]; 31 g ai/ha, scale 0 to 100
  pest or weed control at 31 g/ha: 80%
[4]; 62 g ai/ha, scale 0 to 100
  pest or weed control at 62 g/ha: 90%
[4]; scale 0 to 100
  pest or weed control at 125 g/ha: 90%
[4]; 250 g ai/ha, scale 0 to 100
  pest or weed control at 250 g/ha: 90%
[4]
  pest or weed control at 500 g/ha: 95%
[5]; 31 g ai/ha
  pest or weed control at 31 g/ha: 0%
[5]; 62 g ai/ha
  pest or weed control at 62 g/ha: 0%
[5]
  pest or weed control at 125 g/ha: 0%
  pest or weed control at 500 g/ha: 0%
[5]; 250 g ai/ha
  pest or weed control at 250 g/ha: 0%
[6]; 31 g ai/ha
  pest or weed control at 31 g/ha: 90%
[6]; 62 g ai/ha
  pest or weed control at 62 g/ha: 95%
[6]
  pest or weed control at 125 g/ha: 98%
  pest or weed control at 500 g/ha: 100%
[6]; 250 g ai/ha
  pest or weed control at 250 g/ha: 100%
[7]; 31 g ai/ha
  pest or weed control at 31 g/ha: 0%
[7]; 62 g ai/ha
  pest or weed control at 62 g/ha: 0%
[7]
  pest or weed control at 125 g/ha: 0%
  pest or weed control at 500 g/ha: 0%
[7]; 250 g ai/ha
  pest or weed control at 250 g/ha: 0%
[8]; 31 g ai/ha
  pest or weed control at 31 g/ha: 0%
[8]; 62 g ai/ha
  pest or weed control at 62 g/ha: 0%
[8]
  pest or weed control at 125 g/ha: 0%
  pest or weed control at 500 g/ha: 5%
[8]; 250 g ai/ha
  pest or weed control at 250 g/ha: 10%
[9]; 31 g ai/ha
  pest or weed control at 31 g/ha: 0%
[9]; 62 g ai/ha
  pest or weed control at 62 g/ha: 0%
[9]
  pest or weed control at 125 g/ha: 0%
  pest or weed control at 500 g/ha: 10%
[9]; 250 g ai/ha
  pest or weed control at 250 g/ha: 0%
[10]; 31 g ai/ha
  pest or weed control at 31 g/ha: 80%
[10]; 62 g ai/ha
  pest or weed control at 62 g/ha: 90%
[10]
  pest or weed control at 125 g/ha: 95%
  pest or weed control at 500 g/ha: 100%
[10]; 250 g ai/ha
  pest or weed control at 250 g/ha: 100%
[11]; 31 g ai/ha
  plant injury at 31 g/ha: 0%
[11]; 62 g ai/ha
  plant injury at 62 g/ha: 0%
[11]
  plant injury at 125 g/ha: 0%
  plant injury at 500 g/ha: 0%
[11]; 250 g ai/ha
  plant injury at 250 g/ha: 0%
[12]; 31 g ai/ha
  pest or weed control at 31 g/ha: 0%
[12]; 62 g ai/ha
  pest or weed control at 62 g/ha: 0%
[12]
  pest or weed control at 125 g/ha: 0%
  pest or weed control at 500 g/ha: 0%
[12]; 250 g ai/ha
  pest or weed control at 250 g/ha: 0%
